Measurements as given in patent US20100152188A1, “Novel Heterocyclic Compounds” (priority 2005, published 2010).

Tests used:
[1] = test system: NCIH460; assay: Anti-cancer screen (MTT), NCIH460; format: cell-based; conditions: Homo sapiens, NCI-H460, 48 hours with compound, tested at 0.01-100 µM
Procedure: (§1) Experimental drugs are screened for anti-cancer activity in three cell lines for their GI50, TGI and LC50 values (using five concentrations for each compound). The cell lines are maintained in DMEM containing 10% fetal bovine serum. 96 well micro titer plates are inoculated with cells in 100 µL for 24 hours at 37° C., 5% CO2, 95% air and 100% relative humidity. 5000 HCT 116 cells/well, 5000 NCIH 460 cells/well and 5000 U251 cells/well are plated. A separate plate with these cell lines is also inoculated to determine cell viability before the addition of the compounds (T0).
(§2) Following 24-hour incubation, experimental drugs are added to the 96 well plates. Each plate contains one of the above cell lines and the following in triplicate: five different concentrations (0.01, 0.1, 1, 10 and 100 µM) of four different compounds, appropriate dilutions of a cytotoxic standard and control (untreated) wells. Compounds are dissolved in DMSO to make 20 mM stock solutions on the day of drug addition and frozen at −20° C. Serial dilutions of these 20 mM stock solutions are made in complete growth medium such that 100 µL of these drug solutions in medium, of final concentrations equaling 0.01, 0.1, 1, 10 and 100 µM can be added to the cells in triplicate. Standard drugs whose anti-cancer activity has been well documented and which are regularly used are doxorubicin and SAHA.
(§3) For T0 measurement, 24 hours after seeding the cells, 10 µL of 3-(4,5-Dimethyl-2-thiazolyl)-2,5-diphenyl-2H-tetrazolium (MTT) solution per well is added and incubation carried out for 3 hours at 37° C., 5% CO2, 95% air and 100% relative humidity, protected from light. Cells incubated with compounds for 48 hours are treated similarly except with the addition of 20 µl MTT solution per well and a subsequent incubation under the same conditions. After 3 hours of MTT incubation, well contents are aspirated carefully followed by addition of 150 µL DMSO per well. Plates are agitated to ensure solution of the formazan crystals in DMSO and absorbance read at 570 nm.
(§4) Percent growth is calculated for each compound's concentration relative to the control and zero measurement wells (T0; viability right before compound addition). If a test well's O.D. value is greater than the T0 measurement for that cell line
(§5) %Growth=(test−zero)/(control−zero)×100
(§6) If a test well's O.D. value is lower than the T0 measurement for that cell line, then,
(§7) %Growth=(test−zero)/zero×100

[2] = test system: HCT116; assay: Anti-cancer screen (MTT), HCT116; format: cell-based; conditions: Homo sapiens, HCT-116, 48 hours with compound, tested at 0.01-100 µM
Procedure: as §1, §2, §3, §4, §5, §6, §7

[3] = test system: NCIH460, HCT116, MDAMB-231/U 251; assay: Anti-cancer screen, mean GI50 over the cell lines; format: cell-based; conditions: in µM
Procedure: as §1, §2, §3, §4

[4] = test system: MDAMB-231/U 251; assay: Anti-cancer screen (MTT), MDAMB-231/U 251; format: cell-based; conditions: for CC50: 48 h, read-out: MDAMB-231/U 251 LC50; for GI50 / IC (TGI): 48 hours with compound, MTT, tested at 0.01-100 µM
Procedure: as §1, §2, §3, §4, §5, §6, §7

[5] = test system: HDAC; assay: HDAC inhibition; format: biochemical

Row | SMILES | GI50 [1] [µM] | IC (TGI) [1] [µM] | LC50 [1] [µM] | GI50 [2] [µM] | IC (TGI) [2] [µM] | LC50 (concentration giving 50% net cell kill relative to T0) [2] [µM] | Mean GI50 [3] | CC50 [4] [µM] | GI50 [4] [µM] | IC (TGI) [4] [µM] | HDAC Inhibition 1 μM ([5]; compound at 1 μM) | HDAC Inhibition 10 μM ([5]; compound at 10 μM)
1 | CNC(=O)Cc1csc(NC(=O)OCc2cccnc2)n1 [Example 15, Pyridin-3-ylmethyl{4-[2-(methylamino)-2-oxoethyl]-1,3-thiazol-2-yl}carbamate] | 60 | > 100 | > 100 | 100 | > 100 | > 100 | 73.3 | > 100 | 60 | > 100 | – | –
2 | Nc1ccccc1NC(=O)Cc1csc(NC(=O)OCc2c(F)c(F)c(F)c(F)c2F)n1 [Example 22, Pentafluorobenzyl(4-{2-[(2-aminophenyl)amino]-2-oxoethyl}-1,3-thiazol-2-yl)carbamate] | 48 | > 100 | > 100 | 53 | > 100 | > 100 | 37 | > 100 | 10 | > 100 | – | –
3 | O=C(CCCNC(=O)Cc1csc(NC(=O)OCc2c(F)c(F)c(F)c(F)c2F)n1)NO [Example 92, Pentafluorobenzyl[4-(2-{[4-(hydroxyamino)-4-oxobutyl]amino}-2-oxoethyl)-1,3-thiazol-2-yl]carbamate] | > 100 | > 100 | > 100 | > 100 | > 100 | > 100 | >100 | > 100 | 30 | 50 | – | –
4 | O=C(NCc1ccc(C(=O)NCCO)cc1)OCc1cccs1 [Example 61, 2-Thienylmethyl(4-{[(2-hydroxyethyl)amino]carbonyl}benzyl)carbamate] | > 100 | > 100 | > 100 | > 100 | > 100 | > 100 | >100 | > 100 | 65 | > 100 | – | –
5 | O=C(NCc1ccc(C(=O)Nc2ncc([N+](=O)[O-])s2)cc1)OCc1cccs1 [Example 69, 2-thienylmethyl(4-{[(5-nitro-1,3-thiazol-2yl)amino]carbonyl}benzyl)carbamate] | – | – | – | – | – | – | 40.33 | – | – | – | 13.14 | 12.38
6 | CONC(=O)c1ccc(CNC(=O)OCc2c(F)c(F)c(F)c(F)c2F)cc1 [Example 44, Pentafluorobenzyl(4-{[methoxyamino]carbonyl}benzyl)carbamate] | 42 | > 100 | > 100 | 21 | > 100 | > 100 | 22.67 | > 100 | 5 | 9 | – | –
7 | CON(C)C(=O)Cc1csc(NC(=O)OCc2cccnc2)n1 [Example 14, Pyridin-3-ylmethyl(4-{2-[methoxy(methyl)amino]-2-oxoethyl}-1,3-thiazol-2-yl)carbamate] | 10 | > 100 | > 100 | 80 | > 100 | > 100 | 45 | > 100 | > 100 | > 100 | – | –
8 | O=C(NCc1ccc(C(=O)NO)cc1)OCc1c(F)cc(F)cc1F [Example 38, 2,4,6-Trifluorobenzyl{4-[(hydroxyamino)carbonyl]benzyl}carbamate] | 22 | 52 | 82 | 5 | 20 | 65 | 9.2 | 68 | 0.5 | 8 | – | –
9 | CNC(=O)c1ccc(CNC(=O)OCc2nc3ccccc3[nH]2)cc1 [Example 41, 1H-Benzimidazol-2-ylmethyl{4-[(methylamino)carbonyl]benzyl}carbamate] | 6 | > 100 | > 100 | 58 | > 100 | > 100 | 24.3 | > 100 | 9 | > 100 | – | –
10 | O=C(NCc1ccc(C(=O)NO)cc1)OCc1ccc(C(F)(F)F)cc1 [Example 35, 4-(Trifluoromethyl)benzyl{4-[(hydroxyamino)carbonyl]benzyl}carbamate] | 20 | 50 | 80 | 5 | 12 | 60 | 8.4 | 70 | 0.05 | 15 | – | –
